In patent EP0761658A1, “Azole-phenyl urea derivatives as ACAT inhibitors and their production” (NIHON NOHYAKU CO., LTD., priority 1995, dated 1997):

Columns and labels:
[1] = tested on: acyl-CoA:cholesterol acyltransferase (ACAT); experiment: Inhibitory activity on acyl-CoA:cholesterol acyltransferase (ACAT), microsomal fraction of intestinal mucosa, [1-14C]oleyl-CoA incorporation into cholesterol esters; assay type: biochemical, white rabbit; conditions: rabbit intestinal mucosa microsomes
Description: The enzyme used in the test was prepared according to the method of Heider et al. [J. Lipid Res. 24, 1127 (1983)]. A white rabbit was killed by blood-letting under anesthesia, after which its intestinal mucosa was collected and then homogenized, and microsomal fraction was obtained by stepwise centrifugation. The microsomal fraction was suspended in 0.154 M phosphate buffer (pH 7.4) and stored at -80°C until use.
ACAT activity was determined by a modification of the method of Helgerud et al. [J. Lipid Res. 22, 271 (1981)] by measuring radioactivity incorporated into cholesterol esters from [1-^14C]oleyl-CoA, as an indication. As to the ACAT-inhibitory activity of each compound to be tested, the inhibition rate was calculated by the following equation. Inhibition rate (%) =([ACAT activity of control group which was given solvent]-[ACAT activity of group treated with compound to be tested])/([ACAT activity of control group which was given solvent])x 100 [formula]

[2] = tested on: rats fed on a high-cholesterol diet; experiment: Serum cholesterol lowering activity in rats fed on a high-cholesterol diet; assay type: in vivo, Male Sprague-Dawley rats; conditions: Rattus norvegicus, 96 h; total serum cholesterol; 30 mg per kg of body weight per day for 4 days, suspended in 0.5% carboxymethyl cellulose; blood 24 hours after last administration; read-out: Reduction rate (%)
Description: Male Sprague-Dawley rats of 6-week-old were divided into three groups. The first group (normal group) was fed an ordinary diet for 4 days. The second group (control group) was fed a high cholesterol diet (containing 1.0% cholesterol, 1.0% cholic acid and 8.5% coconut oil) for 4 days. The third group (treated group) was fed a high cholesterol diet and was treated with a compound for 4 days.
Simultaneously with the beginning of the above feeding, the compound was suspended in a 0.5% carboxymethyl cellulose solution and administered to the treated group, in a dose of 30 mg (in terms of the compound) per kg of body weight per day for 4 days. A 0.5% carboxymethyl cellulose solution was also administered to the normal group and the control group in the same manner as above.
After 24 hours of the last administration, blood was collected and the cholesterol concentration in serum was measured by an enzymatic method. The reduction rate of the total serum cholesterol concentration was calculated from values obtained for the three groups by the following equation. Choresterol reduction rate (%) =((A) - (B))/((A) - (C))x 100 [formula] wherein A: the serum cholesterol concentration of the control group. B: the serum cholesterol concentration of the treated group. C: the serum cholesterol concentration of the normal group.

[3] = compound concentration 1 (head prints '1 | 0.01 µm')

## CCc1cccc(CC)c1NC(=O)Nc1nc(C)sc1-c1ccccc1Cl [Compound 26, N-[5-(2-Chlorophenyl)-2-methylthiazol-4-yl]-N'-(2,6-diethylphenyl)urea]
[1]; compound concentration 0.01 µm
  Inhibition rate %: 51.4%

## COc1ccc(Cn2c(-c3ccccc3)nc(NC(=O)Nc3c(C(C)C)cccc3C(C)C)c2-c2ccccc2Cl)cc1 [Compound 44, N-[5-(2-Chlorophenyl)-1-(4-methoxybenzyl)-2-phenylimidazol-4-yl]-N'-(2,6-diisopropylphenyl)urea]
[1]; [3]
  Inhibition rate %: 99.2%

## Cc1ccccc1-c1nc(-c2ccccc2)sc1NC(=O)Nc1c(C(C)C)cccc1C(C)C [Compound 2, N-(2,6-Diisopropylphenyl)-N'-[4-(2-methylphenyl)-2-phenylthiazol-5-yl]urea]
[1]; compound concentration 0.01 µm
  Inhibition rate %: 55.2%
[1]; [3]
  Inhibition rate %: 99.8%
[2]
  inhibition in vivo at 30 mg/kg: 85.7%

## Cc1nc(-c2ccccc2)c(NC(=O)Nc2c(C(C)C)cccc2C(C)C)s1 [Compound 3, N-(2,6-Diisopropylphenyl)-N'-(2-methyl-4-phenylthiazol-5-yl)urea]
[1]; [3]
  Inhibition rate %: 92.1%

## CC(C)c1cccc(C(C)C)c1NC(=O)Nc1nc(-c2ccccc2)n(COCC[Si](C)(C)C)c1-c1ccccc1Cl [Compound 40, N-[5-(2-Chlorophenyl)-2-phenyl-1-(2-trimethylsilyl)ethoxymethylimidazol-4-yl]-N'-(2,6-diisopropylphenyl)urea]
[1]; [3]
  Inhibition rate %: 99.4%

## Cc1nc(-c2ccccc2Cl)c(NC(=O)Nc2ccc(F)cc2F)s1 [Compound 6, N-[4-(2-Chlorophenyl)-2-methylthiazol-5-yl]-N'-(2,4-difluorophenyl)urea]
[1]; [3]
  Inhibition rate %: 46.1%

## CCc1nc(-c2ccccc2Cl)c(NC(=O)Nc2c(C(C)C)cccc2C(C)C)s1 [Compound 11, N-[4-(2-Chlorophenyl)-2-ethylthiazol-5-yl]-N'-(2,6-diisopropylphenyl)urea]
[1]; compound concentration 0.01 µm
  Inhibition rate %: 42.9%
[1]; [3]
  Inhibition rate %: 99.2%
[2]
  inhibition in vivo at 30 mg/kg: 46.2%

## Cc1nc(-c2ccccc2Cl)c(NC(=O)Nc2c(C(C)C)cccc2C(C)C)s1 [Compound 4, N-[4-(2-Chlorophenyl)-2-methylthiazol-5-yl]-N'-(2,6-diisopropylphenyl)urea]
[1]; compound concentration 0.01 µm
  Inhibition rate %: 63.9%

## CCc1cccc(CC)c1NC(=O)Nc1sc(N2CCCCC2)nc1-c1ccccc1 [Compound 17, N-(2,6-Diethylphenyl)-N'-[4-phenyl-2-(N-piperidino)thiazol-5-yl)urea]
[1]; [3]
  Inhibition rate %: 99.8%

## CC(C)c1cccc(C(C)C)c1NC(=O)Nc1nc(N2CCOCC2)sc1-c1ccccc1Cl [Compound 24, N-[5-(2-Chlorophenyl)-2-(N-morpholino)thiazol-4-yl]-N'-(2,6-diisopropylphenyl)urea]
[1]; [3]
  Inhibition rate %: 97.9%

## CC(C)c1cccc(C(C)C)c1NC(=O)Nc1c(-c2ccccc2Cl)nc(-c2ccccc2)n1Cc1ccccc1 [Compound 36, N-[1-Benzyl-4-(2-chlorophenyl)-2-phenylimidazol-5-yl]-N'-(2,6-diisopropylphenyl)urea]
[1]; [3]
  Inhibition rate %: 79.5%

## Cc1nc(NC(=O)Nc2c(C(C)C)cccc2C(C)C)c(-c2ccccc2Cl)s1 [Compound 25, N-[5-(2-Chlorophenyl)-2-methylthiazol-4-yl]-N'-(2,6-diisopropylphenyl)urea]
[1]; compound concentration 0.01 µm
  Inhibition rate %: 88.1%
[2]
  inhibition in vivo at 30 mg/kg: 39.1%

## CCc1cccc(CC)c1NC(=O)Nc1sc(C)nc1-c1ccccc1Cl [Compound 5, N-[4-(2-Chlorophenyl)-2-methylthiazol-5-yl]-N'-(2,6-diethylphenyl)urea]
[1]; [3]
  Inhibition rate %: 97.8%

## Cc1nc(-c2ccccc2C)c(NC(=O)Nc2c(C(C)C)cccc2C(C)C)s1 [Compound 8, N-(2,6-DiisopropylphenyI)-N'-[2-methyl-4-(2-methylphenyl)thiazol-5-yl]urea]
[1]; [3]
  Inhibition rate %: 99.1%

## CCc1cccc(CC)c1NC(=O)Nc1nc(-c2ccccc2)sc1-c1ccccc1C [Compound 28, N-(2,6-Diethylphenyl)-N'-[5-(2-methylphenyl)-2-phenylthiazol-4-yl]urea]
[1]; compound concentration 0.01 µm
  Inhibition rate %: 64.1%
[2]
  inhibition in vivo at 30 mg/kg: 87.8%

## CC(C)c1cccc(C(C)C)c1NC(=O)Nc1sc(N(C)C)nc1-c1ccccc1Cl [Compound 15, N-[4-(2-Chlorophenyl)-2-dimethylaminothiazol-5-yl]-N'-(2,6-diisopropylphenyl)urea]
[1]; [3]
  Inhibition rate %: 99.2%

## CC(C)c1cccc(C(C)C)c1NC(=O)Nc1sc(-c2ccccc2)nc1-c1ccccc1Cl [Compound 1, N-[4-(2-Chlorophenyl)-2-phenylthiazol-5-yl]-N'-(2,6-diisopropylphenyl)urea]
[1]; compound concentration 0.01 µm
  Inhibition rate %: 38.7%
[1]; [3]
  Inhibition rate %: 99.9%
[2]
  inhibition in vivo at 30 mg/kg: 53.8%

## CC(C)c1cccc(C(C)C)c1NC(=O)Nc1nc(-c2ccccc2)[nH]c1-c1ccccc1Cl [Compound 45, N-[4(5)-(2-Chlorophenyl)-2-phenylimidazol-5(4)-yl]-N'-(2,6-diisopropylphenyl)urea]
[1]; [3]
  Inhibition rate %: 77.9%

## CC(C)c1cccc(C(C)C)c1NC(=O)Nc1nc(-c2ccccc2)n(Cc2ccccc2)c1-c1ccccc1Cl [Compound 37, N-[1-Benzyl-5-(2-chlorophenyl)-2-phenylimidazol-4-yl]-N'-(2,6-diisopropylphenyl)urea]
[1]; compound concentration 0.01 µm
  Inhibition rate %: 80.4%
[2]
  inhibition in vivo at 30 mg/kg: 59%

## CC(C)c1cccc(C(C)C)c1NC(=O)Nc1sc(C2CCCCC2)nc1-c1ccccc1Cl [Compound 13, N-[4-(2-Chlorophenyl)-2-cyclohexylthiazol-5-yl]-N'-(2,6-diisopropylphenyl)urea]
[1]; [3]
  Inhibition rate %: 72.7%

## Cc1nc(NC(=O)Nc2c(C(C)C)cccc2C(C)C)c(-c2ccccc2C)s1 [Compound 29, N-(2,6-Diisopropylphenyl)-N'-[2-methyl-5-(2-methylphenyl)thiazol-4-yl]urea]
[1]; compound concentration 0.01 µm
  Inhibition rate %: 90.2%
[2]
  inhibition in vivo at 30 mg/kg: 46.1%

## CC(C)c1cccc(C(C)C)c1NC(=O)Nc1sc(N2CCCCC2)nc1-c1ccccc1Cl [Compound 19, N-[4-(2-Chlorophenyl)-2-(N-piperidino)thiazol-5-yl]-N'-(2,6-diisopropylphenyl)urea]
[1]; [3]
  Inhibition rate %: 99.9%

## CCCCCc1nc(-c2ccccc2Cl)c(NC(=O)Nc2c(C(C)C)cccc2C(C)C)s1 [Compound 12, N-[4-(2-Chlorophenyl)-2-n-pentylthiazol-5-yl]-N'-(2,6-diisopropylphenyl)urea]
[1]; [3]
  Inhibition rate %: 96.2%

## Cc1ccccc1-c1nc(-c2ccccc2)oc1NC(=O)Nc1c(C(C)C)cccc1C(C)C [Compound 33, N-(2,6-Diisopropylphenyl)-N'-[4-(2-methylphenyl)-2-phenyloxazol-5-yl]urea]
[1]; compound concentration 0.01 µm
  Inhibition rate %: 62.0%
[2]
  inhibition in vivo at 30 mg/kg: 73.2%

## CSc1ccccc1-c1sc(-c2ccccc2)nc1NC(=O)Nc1c(C(C)C)cccc1C(C)C [Compound 30, N-(2,6-Diisopropylphenyl)-N'-[5-(2-methylthiophenyl)-2-phenylthiazol-4-yl]urea]
[1]; compound concentration 0.01 µm
  Inhibition rate %: 76.8%
[2]
  inhibition in vivo at 30 mg/kg: 75.7%

## Cc1nc(-c2ccccc2C)c(NC(=O)Nc2ccc(F)cc2F)s1 [Compound 9, N-(2,4-Difluorophenyl)-N'-[2-methyl-4-(2-methylphenyl)thiazol-5-yl]urea]
[1]; [3]
  Inhibition rate %: 49.4%

## Cc1ccccc1-c1sc(-c2ccccc2)nc1NC(=O)Nc1c(C(C)C)cccc1C(C)C [Compound 27, N-(2,6-Diisopropylphenyl)-N'-[5-(2-methylphenyl)-2-phenylthiazol-4-yl]urea]
[1]; compound concentration 0.01 µm
  Inhibition rate %: 86.5%
[2]
  inhibition in vivo at 30 mg/kg: 61.7%

## Cc1ccccc1-c1oc(-c2ccccc2)nc1NC(=O)Nc1c(C(C)C)cccc1C(C)C [Compound 31, N-(2,6-Diisopropylphenyl)-N'-[5-(2-methylphenyl)-2-phenyloxazol-4-yl]urea]
[1]; compound concentration 0.01 µm
  Inhibition rate %: 70.6%
[2]
  inhibition in vivo at 30 mg/kg: 59.8%

## CC(C)c1cccc(C(C)C)c1NC(=O)Nc1sc(N2CCOCC2)nc1-c1ccccc1Cl [Compound 21, N-[4-(2-Chlorophenyl)-2-(N-morpholino)thiazol-5-yl]-N'-(2,6-diisopropylphenyl)urea]
[1]; [3]
  Inhibition rate %: 99.8%

## CC(C)c1cccc(C(C)C)c1NC(=O)Nc1nc(-c2ccccc2)n(C)c1-c1ccccc1Cl [Compound 35, N-[5-(2-Chlorophenyl)-1-methyl-2-phenylimidazol-4-yl]-N'-(2,6-diisopropylphenyl)urea]
[1]; compound concentration 0.01 µm
  Inhibition rate %: 33.5%
[1]; [3]
  Inhibition rate %: 99.6%

## COCn1c(-c2ccccc2)nc(NC(=O)Nc2c(C(C)C)cccc2C(C)C)c1-c1ccccc1Cl [Compound 42, N-[5-(2-Chlorophenyl)-1-methoxymethyl-2-phenylimidazol-4-yl]-N'-(2,6-diisopropylphenyl)urea]
[1]; [3]
  Inhibition rate %: 99.2%
